# In US8030489B2, “Ornithine derivative” (Astellas Pharma Inc., priority 2007, dated 2011):
# How the values were obtained:
# [1] = molecular target: T1, rat EP4 receptor (Rattus norvegicus, UniProt P43114); assay: Evaluation test on rat EP4 receptor affinity ([3H]PGE2 binding assay); details: rat EP4 expressed in HEK293 membrane fraction, [3H]PGE2 0.3 nM
# T1 construct: expressed in transfected cells; host or cells: HEK293
# Protocol: Test Example 1: Evaluation Test on Rat EP4 Receptor Affinity
# Cell Culture and Transfection
# Using a 10 cm collagen-coated dish (Asahi Glass), HEK293 cells were cultured in a D-MEM culture medium, washed with a phosphate buffer saline (PBS), the culture medium was removed off at a confluence (90 to 100% density state), and then the cells were detached with N,N,N′,N′-tetrakis(carboxymethyl)ethylenediamine (EDTA). The cells were counted and seeded on a 15 cm collagen-coated dish to a confluence of 70%. The next day, to an Opti-MEM culture medium at 1.2 mL/dish was added Lipofectamine 2000 (Invitrogen) at 60 μL/dish, followed by being left to stand at room temperature for 5 minutes. A plasmid in which a rat EP4 (alignment number 1) had been inserted into a TA cloning site of pcDNA3.1-V5-His-topo was added thereto to 15 μg/dish. After leaving it to stand at room temperature for 30 minutes, the resultant was added to the dish, and cultured for 20 to 24 hours. The cell culture was carried out in a CO2 incubator (37° C., 5% CO2).
# Preparation of Membrane Fraction
# The culture medium was removed by suction, 10 mL of cooled PBS was added thereto per 15 cm dish, and the cells were scraped using a cell scraper (Sumitomo Bakelite). They were washed with cooled PBS (1,200 rpm, 4° C., 5 min), and then suspended in 6 mL of cooled 20 mM Tris-HCl (pH 7.4; Nakalai Tesque Inc., including 5 mM EDTA (Nakalai Tesque Inc.) per dish. Then, it was homogenized using a Polytron and the homogenate was centrifuged (26,000 rpm, 20 min, 4° C.). The obtained precipitate was resuspended in cooled 20 mM Tris-HCl, and homogenized again using a Polytron, and the homogenate was centrifuged (26,000 rpm, 20 min, 4° C.). The obtained precipitate was resuspended in 50 mM HEPES (pH 7.5; Dojindo Laboratories) to 1 mL per dish, homogenized again using a Polytron, and freeze-stored at −80° C. as a membrane fraction. At this time, a part thereof was used for the measurement of the protein concentration. Measurement of the protein concentration was carried out using a Bio-Rad Protein assay kit (Bio-Rad Laboratories) in accordance with the appended standard Protocol in duplicate.
# [^3H] PGE2 50 μL (final concentration 0.3 nM; Perkin Elmer), 100 μL (20 μg/well) of a membrane fraction prepared from the rat EP4 expression cell, and 50 μL of a test compound were mixed in a 96-well microplate (Sumitomo Bakelite), incubated at room temperature for 1 hour, then filtered by suction on a UniFilter-96 GF/B (Perkin Elmer) using a FilterMate Harvester (Perkin Elmer), and washed three times with 300 μL/well of a cooled assay buffer. Dilution of [^3H]PGE2 and the membrane fraction was carried out using an assay buffer (50 mM HEPES, 10 mM MgCl2), and dilution of the test compound and the unlabeled PGE2 was carried out using DMSO and an assay buffer. Further, in the case of the addition of a human serum albumin (HSA), dilution was carried out using an assay buffer containing 4% HSA (final concentration 1%; Sigma). The UniFilter-96 GF/B was treated by preliminarily washing twice with 200 μL/well of a cooled assay buffer. The UniFilter-96 GF/B after filtration was dried in a dryer overnight, 50 μL/well of MicroScint20 (Perkin Elmer) was added thereto, and then the radioactivity was measured using a TopCount (Perkin Elmer). For measurement of the non-specific binding, an unlabeled PGE2 (final concentration 1 μM; Cayman) was added. All of the measurements were carried out in duplicate, and the specific binding amount was determined by subtracting the non-specific binding amount from the total binding amount.
# According to Test Example 1 as above, the rat EP4 receptor affinity (Ki) of the compound of the formula (I) was measured.
# [2] = Solubility test; type: physicochemical; details: pH 1.2, simulated gastric fluid, kinetic from dmso stock; first liquid for disintegration test of Japanese Pharmacopoeia, 25° C., shaking 20 hours
# Protocol: Test Example 3: Solubility Test
# To 13 μL of a 10 mM DMSO solution of a test material that had been prepared in advance was added exactly 1 mL of a first liquid for a disintegration test of Japanese Pharmacopoeia, followed by shaking at 25° C. for 20 hours, thereby giving a sample stock solution. Next, using a filter impregnated with 200 μL of the sample stock solution, 200 μL of a fresh sample stock solution was added for filtration to obtain a liquid, which was taken as a sample solution. Apart from this, to 10 μL of the 10 mM DMSO solution of the test material was added accurately 1 mL of methanol, followed by stirring, thereby giving a standard solution. 10 μL of the sample solution and the standard solution were tested by liquid chromatography, respectively, and the ratio of the peak area of the sample solution to the peak area of the standard solution was determined, thereby calculating the solubility. For example, the solubilities of the compounds of Examples 23, 25, 31, 32, 50, 55, 57, 60, 93, and 284 were 51 μg/mL, 26 μg/mL, ≧53 μg/mL, 46 μg/mL, 47 μg/mL, ≧52 μg/mL, ≧50 μg/mL, 40 μg/mL, ≧53 μg/mL, and <1 μg/mL, respectively.
# [3] = tested on: urinary albumin excretion (UAE) in STZ diabetic rats; assay: Effect on urine albumin in streptozotocin-induced (STZ) diabetic rats; type: in vivo, rat; details: male Wistar rats, STZ 50 mg/kg i.v.; 30 mg/kg oral, fourth week of administration; vehicle group 3.1±0.7 mg/day
# Protocol: Test Example 2: Test to Study the Effect on Urine Albumin in Streptozotocin-induced (STZ) Diabetic Rats.
# Eight-week old male Wistar (Crj) rats were divided into groups with unbiased urinary albumin excretion (UAE), and STZ (50 mg/kg) was intravenously administered thereto. From the next day of administration of STZ, the drug was continuously orally administered, and urine was periodically collected in a metabolism cage for 24 hours to measure the UAE.
# T1 sequence (P43114 whole entry): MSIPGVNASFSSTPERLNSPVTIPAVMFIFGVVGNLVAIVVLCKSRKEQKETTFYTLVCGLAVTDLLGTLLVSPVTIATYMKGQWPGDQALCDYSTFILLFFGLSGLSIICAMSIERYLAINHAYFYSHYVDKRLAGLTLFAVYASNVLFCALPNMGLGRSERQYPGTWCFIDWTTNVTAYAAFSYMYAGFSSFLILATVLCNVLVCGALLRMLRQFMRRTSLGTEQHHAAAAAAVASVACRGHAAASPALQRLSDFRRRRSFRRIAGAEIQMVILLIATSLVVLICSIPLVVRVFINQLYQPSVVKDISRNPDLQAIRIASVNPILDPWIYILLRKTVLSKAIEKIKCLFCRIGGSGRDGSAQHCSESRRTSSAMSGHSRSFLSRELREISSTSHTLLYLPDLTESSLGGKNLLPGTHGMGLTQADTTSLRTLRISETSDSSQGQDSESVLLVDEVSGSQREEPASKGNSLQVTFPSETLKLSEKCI
Ki [1],solubility at 20 h [2],SMILES,urinary albumin excretion (UAE) [3]
1.1 nM,≥ 53 µg/mL,CN(C)c1cccc(C(=O)N[C@@H](CCCNC(=O)OCc2ccccc2)C(=O)N[C@H]2CCC[C@H]2C(=O)O)c1 [Example 31],–
0.52 nM,–,Cn1c(C(=O)N[C@@H](CCCNC(=O)OCc2ccccc2)C(=O)N[C@H]2CCC[C@H]2c2nnn[nH]2)cc2ccccc21 [Example 83],–
1.8 nM,–,O=C(NCCC[C@H](NC(=O)c1cccc(Cl)n1)C(=O)N[C@H]1CCC[C@H]1C(=O)O)OCc1ccccc1 [Example 76],–
0.92 nM,≥ 52 µg/mL,O=C(/C=C/c1ccccc1O)N[C@@H](CCCNC(=O)OCc1ccccc1)C(=O)N[C@H]1CCC[C@H]1C(=O)O [Example 55],–
4 nM,–,Cn1c(C(=O)N[C@@H](CCCNC(=O)OCc2ccccc2)C(=O)N[C@H]2CCC[C@H]2C(=O)NS(=O)(=O)CCCO)cc2ccccc21 [Example 176],–
2.1 nM,–,Cn1c(C(=O)N[C@@H](CCCNC(=O)OCc2ccccc2)C(=O)N[C@H]2CCC[C@H]2c2n[nH]c(=S)o2)cc2ccccc21 [Example 119],–
9.8 nM,–,Cn1c([C@@H]2CCC[C@@H]2NC(=O)[C@H](CCCNC(=O)OCc2ccccc2)NC(=O)c2cc3ccccc3n2C)n[nH]c1=S [Example 120],–
9.8 nM,–,Cc1cc(C)n(C)c1C(=O)N[C@@H](CCCNC(=O)OCc1ccccc1)C(=O)N[C@H]1CCC[C@H]1C(=O)O [Example 36],–
1.3 nM,46 µg/mL,O=C(NCCC[C@H](NC(=O)c1cccc(Cl)c1)C(=O)N[C@H]1CCC[C@H]1C(=O)O)OCc1ccccc1 [Example 32],–
1.6 nM,–,COc1cccc(C(=O)N[C@@H](CCCNC(=O)OCc2ccccc2)C(=O)N[C@H]2CCC[C@H]2C(=O)O)c1 [Example 26],–
0.26 nM,–,COc1ccc2[nH]c(C(=O)N[C@@H](CCCNC(=O)OCc3ccccc3)C(=O)N[C@H]3CCC[C@H]3C(=O)O)cc2c1 [Example 165],–
0.43 nM,–,Cn1c(C(=O)N[C@@H](CCCNC(=O)OCC2CCCCC2)C(=O)N[C@H]2CCC[C@H]2C(=O)O)cc2ccccc21 [Example 160],–
0.66 nM,26 µg/mL,Cn1ccc2ccc(C(=O)N[C@@H](CCCNC(=O)OCc3ccccc3)C(=O)N[C@H]3CCC[C@H]3C(=O)O)cc21 [Example 25],–
0.92 nM,–,"Cn1c(C(=O)N[C@@H](CCCNC(=O)OCc2ccccc2)C(=O)N[C@H]2CCC[C@H]2C(=O)O)cc2ccccc21 [Example 2, (1R,2S)-2-({N^5-[(benzyloxy)carbonyl]-N^2-[(1-methyl-1H-indol-2-yl)carbonyl]-L-ornithyl}amino)cyclopentanecarboxylic acid]",–
0.53 nM,–,Cn1c(C(=O)N[C@@H](CCCNC(=O)OCc2ccccc2)C(=O)N[C@H]2CCCC[C@H]2C(=O)O)cc2ccccc21 [Example 22],–
0.29 nM,–,COc1ccc2[nH]c(C(=O)N[C@@H](CCCNC(=O)OCc3ccccc3)C(=O)N[C@H]3CCC[C@H]3c3nnn[nH]3)cc2c1 [Example 164],–
0.29 nM,–,COc1ccc2c(c1)cc(C(=O)N[C@@H](CCCNC(=O)OCc1ccccc1)C(=O)N[C@H]1CCC[C@H]1c1nnn[nH]1)n2C [Example 169],–
1.1 nM,40 µg/mL,CC(=O)c1cn(C)c2cc(C(=O)N[C@@H](CCCNC(=O)OCc3ccccc3)C(=O)N[C@H]3CCC[C@H]3C(=O)O)ccc12 [Example 60],–
0.79 nM,≥ 53 µg/mL,Cn1ccc2cccc(C(=O)N[C@@H](CCCNC(=O)OCc3ccccc3)C(=O)N[C@H]3CCC[C@H]3C(=O)O)c21 [Example 93],–
0.72 nM,≥ 50 µg/mL,Cc1cc(C(=O)N[C@@H](CCCNC(=O)OCc2ccccc2)C(=O)N[C@H]2CCC[C@H]2C(=O)O)n(C)c1 [Example 57],–
0.78 nM,47 µg/mL,Cn1ccc2c(C(=O)N[C@@H](CCCNC(=O)OCc3ccccc3)C(=O)N[C@H]3CCC[C@H]3C(=O)O)cccc21 [Example 50],–
0.43 nM,51 µg/mL,O=C(NCCC[C@H](NC(=O)c1ccc2ccccc2n1)C(=O)N[C@H]1CCC[C@H]1C(=O)O)OCc1ccccc1 [Example 23],0.9 ± 0.1 mg/day
6 nM,–,CC(C)COC(=O)NCCC[C@H](NC(=O)c1cc2ccccc2n1C)C(=O)N[C@H]1CCC[C@H]1C(=O)O [Example 159],–
